Consider 27 molecules from US10028934B2, “Substituted indazole derivatives active as kinase inhibitiors” (NERVIANO MEDICAL SCIENCES S.R.L., priority 2011, dated 2018).

One assay concerns MV-4-11 cells. Kind of assay: In vitro cell proliferation assay, MV-4-11 (CellTiter-Glo). In kind it is cell-based. The settings on record: MV4-11; human acute leukemia cells bearing FLT3-ITD mutation, 72 h. How it is done: (§1) The human acute leukemia MOLM-13 AND MV-4-11 cells, bearing a FLT3-ITD mutation, were seeded (5000 cells/well) in white 384 well-plates in complete medium (RPMI 1640 plus 10% Fetal bovine serum) and treated with compounds dissolved in 0.1% DMSO, 24 h after seeding. The cells were incubated at 37° C. and 5% CO2 and after 72 h the plates were processed using CellTiter-Glo assay (Promega) following the manufacturer's instruction.
(§2) CellTiter-Glo is a homogenous method based on the quantification of the ATP present, an indicator of metabolitically active cells. ATP was quantified using a system based on luciferase and D-luciferin resultant into light generation. The luminescent signal was proportional to the number of cells present in culture. Briefly, 25 microL/well reagent solution were added to each well and, after 5 minutes shaking, microplates were read by Envision (PerkinElmer) luminometer. Inhibitory activity was evaluated comparing treated versus control data using Symyx Assay Explorer (Symyx Technologies Inc.) program. IC50 was calculated using sigmoidal interpolation curve.
A general note: In ATP-based viability assays light output follows the ATP content of the culture.

A further assay deals with MOLM-13 cells. Kind of assay: In vitro cell proliferation assay, MOLM-13 (CellTiter-Glo). The class given is cell-based. The settings on record: human acute leukemia cells bearing FLT3-ITD mutation, 72 h. The procedure: as §1, §2

Each structure is given as a SMILES string. Structures can show the parent of a compound that is named as a salt. Bounds are passed on as bounds.

For the molecule `CN1CCN(c2ccc(C(=O)Nc3n[nH]c4cc(OCc5ccccc5)ccc34)cc2)CC1` [Cpd. 1, N-(6-Benzyloxy-1H-indazol-3-yl)-4-(4-methyl-piperazin-1-yl)-benzamide], the IC50 was 683 nM with MV-4-11 cells and 789 nM with MOLM-13 cells.

Regarding `CN1CCN(c2ccc(C(=O)Nc3n[nH]c4cc(Oc5ccccc5)ccc34)cc2)CC1` [Cpd. 2, 4-(4-Methyl-piperazin-1-yl)-N-(6-phenoxy-1H-indazol-3-yl)-benzamide], the IC50 with MV-4-11 cells was found to be 1480 nM; in the assay on MOLM-13 cells, 1160 nM.

As to `CN1CCN(c2ccc(C(=O)Nc3n[nH]c4cc(Oc5cccc(F)c5)ccc34)cc2)CC1` [Cpd. 3, N-[6-(3-Fluoro-phenoxy)-1H-indazol-3-yl]-4-(4-methyl-piperazin-1-yl)-benzamide], the IC50 with MV-4-11 cells amounted to 987 nM; in the assay with MOLM-13 cells, 990 nM.

In the case of `CN1CCN(c2ccc(C(=O)Nc3n[nH]c4cc(Oc5ccc(OCc6ccccc6)cc5)ccc34)cc2)CC1` [Cpd. 4, N-[6-(4-Benzyloxy-phenoxy)-1H-indazol-3-yl]-4-(4-methyl-piperazin-1-yl)-benzamide], the IC50 is less than 50 nM in the assay with MV-4-11 cells and 92 nM in the assay with MOLM-13 cells.

As to `CN1CCN(c2ccc(C(=O)Nc3n[nH]c4cc(OCc5cccc(Oc6ccccc6)c5)ccc34)cc2)CC1` [Cpd. 5, 4-(4-Methyl-piperazin-1-yl)-N-[6-(3-phenoxy-benzyloxy)-1H-indazol-3-yl]-benzamide], the half-inhibitory concentration (IC50) with MV-4-11 cells was found to be 513 nM; in the assay on MOLM-13 cells, 557 nM.

As for `CN1CCN(c2ccc(C(=O)Nc3n[nH]c4cc(OC5CCN(Cc6ccccc6)CC5)ccc34)cc2)CC1` [Cpd. 6, N-[6-(1-Benzyl-piperidin-4-yloxy)-1H-indazol-3-yl]-4-(4-methyl-piperazin-1-yl)-benzamide], the half-maximal inhibitory concentration (IC50) is 163 nM in the assay on MV-4-11 cells and 673 nM with MOLM-13 cells.

Consider `CN1CCN(c2ccc(C(=O)Nc3n[nH]c4cc(OCC#Cc5ccccc5)ccc34)cc2)CC1` [Cpd. 7, 4-(4-Methyl-piperazin-1-yl)-N-[6-(3-phenyl-prop-2-ynyloxy)-1H-indazol-3-yl]-benzamide], for which the IC50 was determined as 110 nM in the assay with MV-4-11 cells and 240 nM in the assay on MOLM-13 cells.

As to `CN1CCN(c2ccc(C(=O)Nc3n[nH]c4cc(Oc5ccc(Oc6ccccc6)cc5)ccc34)cc2)CC1` [Cpd. 8, 4-(4-Methyl-piperazin-1-yl)-N-[6-(4-phenoxy-phenoxy)-1H-indazol-3-yl]-benzamide], the IC50 stood at 2750 nM with MV-4-11 cells and 1980 nM in the assay on MOLM-13 cells.

With `CN1CCN(c2ccc(C(=O)Nc3n[nH]c4cc(Oc5cccc(OCc6ccccc6)c5)ccc34)cc2)CC1` [Cpd. 9, N-[6-(3-Benzyloxy-phenoxy)-1H-indazol-3-yl]-4-(4-methyl-piperazin-1-yl)-benzamide], the figures for the IC50 in the assay on MV-4-11 cells and with MOLM-13 cells were 101 nM and 245 nM, respectively.

As for `CN1CCN(c2ccc(C(=O)Nc3n[nH]c4cc(OCCOc5ccccc5)ccc34)cc2)CC1` [Cpd. 10, 4-(4-Methyl-piperazin-1-yl)-N-[6-(2-phenoxy-ethoxy)-1H-indazol-3-yl]-benzamide], the IC50 with MV-4-11 cells amounted to 118 nM; with MOLM-13 cells, 139 nM.

Consider `CN1CCN(c2ccc(C(=O)Nc3n[nH]c4cc(OCCOCc5ccccc5)ccc34)cc2)CC1` [Cpd. 11, N-[6-(2-Benzyloxy-ethoxy)-1H-indazol-3-yl]-4-(4-methyl-piperazin-1-yl)-benzamide], for which the IC50 in the assay with MV-4-11 cells and in the assay with MOLM-13 cells was less than 50 nM each time.

On to `C[N+]1([O-])CCN(c2ccc(C(=O)Nc3n[nH]c4cc(OCCOCc5ccccc5)ccc34)cc2)CC1` [Cpd. 14, N-[6-(2-Benzyloxy-ethoxy)-1H-indazol-3-yl]-4-(4-methyl-4-oxy-piperazin-1-yl)-benzamide], for which the IC50 in the assay on MV-4-11 cells and in the assay with MOLM-13 cells was less than 50 nM in each case.

Regarding `CN(C)C1CCN(c2ccc(C(=O)Nc3n[nH]c4cc(OCCOCc5ccccc5)ccc34)cc2)CC1` [Cpd. 15, N-[6-(2-Benzyloxy-ethoxy)-1H-indazol-3-yl]-4-(4-dimethylamino-piperidin-1-yl)-benzamide], the concentration for half-maximal inhibition (IC50) in the assay on MV-4-11 cells and in the assay on MOLM-13 cells was less than 50 nM in each case.

For `CN(C)CCN(C)c1ccc(C(=O)Nc2n[nH]c3cc(OCCOCc4ccccc4)ccc23)cc1` [Cpd. 16, N-[6-(2-Benzyloxy-ethoxy)-1H-indazol-3-yl]-4-[(2-dimethylamino-ethyl)-methyl-amino]-benzamide], the IC50 in the assay on MV-4-11 cells and in the assay on MOLM-13 cells was less than 50 nM throughout.

For `CN(C)CCCN(C)c1ccc(C(=O)Nc2n[nH]c3cc(OCCOCc4ccccc4)ccc23)cc1` [Cpd. 17, N-[6-(2-Benzyloxy-ethoxy)-1H-indazol-3-yl]-4-[(3-dimethylamino-propyl)-methyl-amino]-benzamide], the IC50 with MV-4-11 cells is less than 50 nM; with MOLM-13 cells, 87 nM.

Consider `CN1CCC(Nc2ccc(C(=O)Nc3n[nH]c4cc(OCCOCc5ccccc5)ccc34)cc2)CC1` [Cpd. 19, N-[6-(2-Benzyloxy-ethoxy)-1H-indazol-3-yl]-4-(1-methyl-piperidin-4-ylamino)-benzamide], for which the IC50 in the assay on MV-4-11 cells and with MOLM-13 cells was less than 50 nM in each case.

`CN(C)Cc1ccc(C(=O)Nc2n[nH]c3cc(OCCOCc4ccccc4)ccc23)cc1` [Cpd. 21, N-[6-(2-Benzyloxy-ethoxy)-1H-indazol-3-yl]-4-dimethylaminomethyl-benzamide]: the IC50 in the assay with MOLM-13 cells came out at 68 nM.

With `CN1CCC(Oc2ccc(C(=O)Nc3n[nH]c4cc(OCCOCc5ccccc5)ccc34)cc2)CC1` [Cpd. 22, N-[6-(2-Benzyloxy-ethoxy)-1H-indazol-3-yl]-4-(1-methyl-piperidin-4-yloxy)-benzamide], the half-maximal inhibitory concentration (IC50) is less than 50 nM with MV-4-11 cells and 65 nM with MOLM-13 cells.

For the molecule `O=C(Nc1n[nH]c2cc(OCCOCc3ccccc3)ccc12)c1ccc(NCCN2CCOCC2)cc1` [Cpd. 25, N-[6-(2-Benzyloxy-ethoxy)-1H-indazol-3-yl]-4-(2-morpholin-4-yl-ethylamino)-benzamide hydrochloride], the IC50 with MV-4-11 cells and in the assay on MOLM-13 cells was less than 50 nM throughout.

Regarding `CN1CCC(CNc2ccc(C(=O)Nc3n[nH]c4cc(OCCOCc5ccccc5)ccc34)cc2)CC1` [Cpd. 27, N-[6-(2-Benzyloxy-ethoxy)-1H-indazol-3-yl]-4-[(1-methyl-piperidin-4-ylmethyl)-amino]-benzamide], the IC50 in the assay on MV-4-11 cells and in the assay with MOLM-13 cells was less than 50 nM in each case.

For the molecule `O=C(Nc1n[nH]c2cc(OCCOCc3ccccc3)ccc12)c1ccc(N2CC(N3CCCC3)C2)cc1` [Cpd. 28, N-[6-(2-Benzyloxy-ethoxy)-1H-indazol-3-yl]-4-(3-pyrrolidin-1-yl-azetidin-1-yl)-benzamide], the IC50 in the assay on MV-4-11 cells and with MOLM-13 cells was less than 50 nM each time.

For `CN1CCN(c2cccc(C(=O)Nc3n[nH]c4cc(OCCOCc5ccccc5)ccc34)c2)CC1` [Cpd. 29, N-[6-(2-Benzyloxy-ethoxy)-1H-indazol-3-yl]-3-(4-methyl-piperazin-1-yl)-benzamide hydrochloride], the IC50 with MV-4-11 cells and in the assay with MOLM-13 cells was less than 50 nM in each case.

In the case of `CN1CCN(c2ccc(C(=O)Nc3n[nH]c4cc(OCCOCc5cccc(C(F)(F)F)c5)ccc34)cc2)CC1` [Cpd. 34, 4-(4-Methyl-piperazin-1-yl)-N-{6-[2-(3-trifluoromethyl-benzyloxy)-ethoxy]-1H-indazol-3-yl}-benzamide], the IC50 in the assay with MV-4-11 cells and in the assay with MOLM-13 cells was less than 50 nM throughout.

On to `CN1CCN(c2ccc(C(=O)Nc3n[nH]c4cc(OCCOCc5ccccc5)ccc34)c(F)c2)CC1` [Cpd. 38, N-[6-(2-Benzyloxy-ethoxy)-1H-indazol-3-yl]-2-fluoro-4-(4-methyl-piperazin-1-yl)-benzamide], for which the IC50 with MV-4-11 cells and with MOLM-13 cells was less than 50 nM throughout.

`CN1CCN(c2ccc(C(=O)Nc3n[nH]c4cc(OC/C=C/c5ccccc5)ccc34)cc2)CC1` [Cpd. 39, 4-(4-Methyl-piperazin-1-yl)-N-[6-((E)-3-phenyl-allyloxy)-1H-indazol-3-yl]-benzamide]: the half-maximal inhibitory concentration (IC50) amounted to 50 nM in the assay on MV-4-11 cells and 81 nM in the assay with MOLM-13 cells.

On to `COc1ccc(COCCOc2ccc3c(NC(=O)c4ccc(N5CCN(C)CC5)cc4)n[nH]c3c2)cc1` [Cpd. 40, N-{6-[2-(4-Methoxy-benzyloxy)-ethoxy]-1H-indazol-3-yl}-4-(4-methyl-piperazin-1-yl)-benzamide], for which the IC50 in the assay on MV-4-11 cells and in the assay on MOLM-13 cells was less than 50 nM throughout.

Take `CN1CCN(c2ccc(C(=O)Nc3n[nH]c4cc(OCCOCc5ccccc5)ccc34)c(N3CCN(C)CC3)c2)CC1` [Cpd. 43, N-[6-(2-Benzyloxy-ethoxy)-1H-indazol-3-yl]-2,4-bis-(4-methyl-piperazin-1-yl)-benzamide]: the IC50 in the assay with MV-4-11 cells was determined as 118 nM; in the assay on MOLM-13 cells, 240 nM.

What is called IC50 is the concentration needed to halve the response being measured. Low values mean greater potency in that assay, high ones weaker potency in that assay.
